According to article PMC7901654, “Bioisosteric Discovery of NPA101.3, a Second-Generation RET/VEGFR2 Inhibitor Optimized for Single-Agent Polypharmacology” (Journal of Medicinal Chemistry, 2020):

How the values were obtained:
human VEGFR2 = molecular target: T1, human VEGFR2 (Homo sapiens, UniProt P35968); test: Ligand-induced VEGFR2 autophosphorylation in transfected HEK293 cells; format: cell-based; conditions: 2 h, VEGFA 100 ng/mL
T1 construct: expressed in transfected cells; host or cells: HEK293, transient transfection
T1 sequence (P35968 20-1356): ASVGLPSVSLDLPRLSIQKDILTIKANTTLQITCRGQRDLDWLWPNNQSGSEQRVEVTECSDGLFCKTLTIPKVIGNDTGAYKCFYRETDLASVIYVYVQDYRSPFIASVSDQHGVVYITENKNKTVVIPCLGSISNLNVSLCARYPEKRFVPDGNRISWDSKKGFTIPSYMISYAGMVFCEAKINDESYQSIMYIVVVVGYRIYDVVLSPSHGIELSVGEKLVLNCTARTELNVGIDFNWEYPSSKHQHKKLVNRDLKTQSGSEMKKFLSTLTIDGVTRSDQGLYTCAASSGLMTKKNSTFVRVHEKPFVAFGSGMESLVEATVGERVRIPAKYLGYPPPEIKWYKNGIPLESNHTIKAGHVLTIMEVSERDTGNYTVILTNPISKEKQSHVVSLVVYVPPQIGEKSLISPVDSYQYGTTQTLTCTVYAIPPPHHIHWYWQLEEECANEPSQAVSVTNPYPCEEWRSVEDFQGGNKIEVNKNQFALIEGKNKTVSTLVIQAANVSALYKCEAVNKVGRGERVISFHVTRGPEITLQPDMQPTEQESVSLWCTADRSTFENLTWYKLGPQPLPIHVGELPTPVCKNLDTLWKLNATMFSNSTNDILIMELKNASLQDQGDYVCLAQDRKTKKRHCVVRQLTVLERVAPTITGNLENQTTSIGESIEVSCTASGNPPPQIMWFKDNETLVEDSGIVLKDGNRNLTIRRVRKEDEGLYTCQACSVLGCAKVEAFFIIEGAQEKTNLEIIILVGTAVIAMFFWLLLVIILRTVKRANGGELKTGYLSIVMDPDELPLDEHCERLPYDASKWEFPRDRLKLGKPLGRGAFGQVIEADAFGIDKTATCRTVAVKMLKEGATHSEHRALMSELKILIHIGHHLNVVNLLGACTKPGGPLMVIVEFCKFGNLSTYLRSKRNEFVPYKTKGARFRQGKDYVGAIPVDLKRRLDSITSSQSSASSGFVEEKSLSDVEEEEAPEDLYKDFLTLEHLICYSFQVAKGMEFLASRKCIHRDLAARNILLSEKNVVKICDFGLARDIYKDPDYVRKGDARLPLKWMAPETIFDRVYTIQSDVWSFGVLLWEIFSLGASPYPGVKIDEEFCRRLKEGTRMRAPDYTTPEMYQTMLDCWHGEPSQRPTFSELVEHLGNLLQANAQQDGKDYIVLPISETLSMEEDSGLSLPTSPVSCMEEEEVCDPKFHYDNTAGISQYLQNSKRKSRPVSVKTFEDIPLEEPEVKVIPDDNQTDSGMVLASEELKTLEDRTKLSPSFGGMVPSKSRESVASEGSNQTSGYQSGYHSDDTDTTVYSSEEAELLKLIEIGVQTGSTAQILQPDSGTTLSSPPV
Experimental: Fibroblasts transfected with RET/C634R were treated with increasing doses of NPA101.3, ranging from 0.1 to 10.0 nM. RET autophosphorylation was assessed by Western blotting using two different antibodies that can recognize phosphorylated Y905, located in the RET kinase activation loop, or Y1062, a multidocking site involved in RET downstream signaling.[41]
Figure 4 NPA101.3-mediated inhibition of phosphorylation and signaling of oncogenic RET mutants and VEGFR2 in intact cells. Serum-starved RAT1 cells exogenously expressing the (A and B) indicated RET point mutants or (C) NIH3T3 cells exogenously expressing the indicated RET rearranged mutants were treated for 2 h with the indicated concentrations of the compound. Total cell lysates (50 μg) were subjected to immunoblotting with anti-phospho-Y1062 (αp1062) and anti-phospho-Y905 (αp905) RET antibodies. The blots were normalized using the anti-RET (αRET) antibody. (D) HEK293 cells were transiently transfected with human VEGFR2; 36 h after transfection, cells were serum starved for 12 h. The indicated doses of the compound or vehicle (NT) were added for 2 h, and then VEGFA (100 ng/mL) stimulation was applied for 15 min. […]
Protein lysates were prepared according to standard procedures. […] Immune complexes were detected with the enhanced chemiluminescence kit (Amersham Pharmacia Biotech, Little Chalfont, U.K.). […]

NIH3T3 RET/C634Y tumors = format: in vivo
Experimental: In vivo target (RET and VEGFR2) inhibition was studied by treating animals grafted with NIH3T3 RET/C634Y cells at different doses (0.3, 1, or 3 mg/kg/day p.o.) of NPA101.3 for 2 days and then performing Western blot analysis on protein extracts. […] Then, to determine antitumorigenic activity and to better distinguish RET- and VEGFR2-mediated effects, we tested NPA101.3 in nude mice transplanted with NIH3T3 cells transformed by either RET/C634Y or HRAS/G12V. Before tumors appeared, animals were treated daily with NPA101.3 (1.0, 3.0, or 10.0 mg/kg/day) or left untreated. […] Still, VEGFR2 inhibition was detected also in RAS-driven tumors, an effect that might explain the, albeit reduced, effect of the drug on their growth (Figure S13). Importantly, as predicted, no trace of NPA101.3 demethyl metabolites was detected after 1 or 4 h from oral dosing in mice (Figure S14).
Figure 6 Effects of NPA101.3 on in vivo tumor growth. NIH3T3 cells transformed by RET/C634Y or HRAS/G12V were inoculated subcutaneously into nu/nu mice. After 4 days, animals were randomly assigned to receive for the indicated time periods the compound (1.0, 3.0, or 10 mg/kg/day) (24 mice; 8 mice/group for 1, 3, and 10 mg/kg doses) or vehicle (8 mice) by oral gavage. The average size of tumors is reported ± SD.
NPA101.3 was dissolved in 80% H2O, 19.875% Tween 20, and 0.125% xanthan gum. The formulation was stored at room temperature and vortexed prior to administration. NIH3T3 RET/C634Y (200000) or NIH3T3 HRAS/G12V (50000) cells were inoculated subcutaneously into the dorsal portion (both sides) of 6-week-old female BALB/c nu/nu mice (32 mice/cell line) (Jackson Laboratories, Bar Harbor, ME). After 4 days, before tumors had appeared, animals were randomly assigned to receive NPA101.3 (1.0, 3.0, or 10 mg/kg/day) (8 mice/group) or vehicle control (8 mice) by oral gavage. Tumor diameters were measured with caliper every 2–3 days. Tumor volumes (V) were calculated by the rotational ellipsoid formula V = A × B^2/2 (A is the axial diameter, and B is the rotational diameter). […] Animals were fed ad libitum on an autoclaved diet and tap water and maintained at the Dipartimento di Medicina Molecolare e Biotecnologie Mediche Animal Facility. All manipulations were performed while the animals were under isoflurane gas anesthesia. Animal studies were conducted in accordance with Italian regulations for experimentation on animals and approved by the Italian Ministry of Health (Authorization 1023/2015-PR). To compare tumor growth, an unpaired Student’s t test (InStat program, GraphPad Software) was used. P values were statistically significant at the P < 0.05 level. […]

CC(C)(C)c1cc(NC(=O)Cc2ccc(-n3cnc4cc(-c5ccc(S(C)(=O)=O)cc5)ccc43)cc2)no1 [NPA101.3] was tested. Which “ligand-induced VEGFR2 autophosphorylation” value (human VEGFR2; 1.0 nM) did it give?
Its value is “reduced”.

And the “inhibition of ligand-induced VEGFR2 autophosphorylation” value (human VEGFR2; 10.0 nM)?
Its value is “virtually total”.

And the “RET phosphorylation and signaling in NIH3T3 RET/C634Y tumors” value (NIH3T3 RET/C634Y tumors; 1.0 mg/kg, 3 h after last dose)?
The value was “strong RET phosphorylation and signaling inhibition”.

What about the “tumor formation induced by RET/C634Y-transformed cells” value (NIH3T3 RET/C634Y tumors; 10 mg/kg/day oral, nu/nu mice, treatment before tumors appeared) of the same molecule?
Its value is “completely prevented”.

What about the “rate of growth of RET-driven tumors” value (NIH3T3 RET/C634Y tumors; lower doses (1.0, 3.0 mg/kg/day) oral) of the same molecule?
Its value is “significantly reduced”.

And the “signs of wasting or toxicity in xenograft mice” value (NIH3T3 RET/C634Y tumors; mouse, in vivo)?
The value was “No mouse showed signs of wasting or other signs of toxicity”.
